Source: patent US9333280B2, “Stabilized enzyme compositions” (Teleflex Medical Incorporated, priority 2009, dated 2016)

System: Staphylococcus aureus ATCC 33591
Assay: Adherence of bacteria on catheter segments
Format: cell-based
Settings: against the tested organisms
Description: In addition to fibrinolytic activity, antimicrobial activity of the 1% LMW-DexS (8 kDa) treated catheters was evaluated. In this test, adherence of gram positive bacteria Staphylococcus aureus ATCC 33591, on the catheter segments having immobilized enzyme uPA stabilized with 1% LMW-DexS (8 kDa), along with the antimicrobial agents such as gentian violet (0.6%) and chlorhexidine dodecanoate was compared to similarly treated catheter segments but without the LMW-DexS (8 kDa) stabilized enzyme.

Row | Compound | antimicrobial activity after attachment of LMW-DexS (8 kDa) stabilized urokinase
1 | CCCCCCCCCCCC(=O)O.NC(=NCCCCCCN=C(N)N=C(N)Nc1ccc(Cl)cc1)N=C(N)Nc1ccc(Cl)cc1 [chlorhexidine dodecanoate] | not compromised
2 | CN(C)c1ccc(C(=C2C=CC(=[N+](C)C)C=C2)c2ccc(N(C)C)cc2)cc1 [gentian violet] | not compromised
